Source: patent US20150105252A1, “SUBSTITUTED PYRAZOLES AS HERBICIDES” (E I DU PONT DE NEMOURS AND COMPANY, priority 2013, published 2015)

Tests used:
[1] = tested on: barnyardgrass; assay: Test A preemergence; type: in vivo, Echinochloa crus-galli; details: preemergence; for Barnyardgrass plant response rating (0 to 100 scale, 0 is no effect, 100 is complete control): visual injury approx. 10 days after treatment
Method in brief: (§1)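 Injury readout: eye-scored versus untreated controls, 0 to 100. Exposure period: ~10 days, greenhouse. Application: soil-directed spray over sown seed (pre) or spray on seedlings 2–10 cm tall with one or two leaves (post), compound carried in non-phytotoxic solvent including surfactant.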

[2] = tested on: kochia; assay: Test A preemergence; type: in vivo, Kochia scoparia; details: for Kochia plant response rating (0 to 100 scale): visual injury approx. 10 days after treatment
Method in brief: as §1

[3] = tested on: common ragweed; assay: Test A preemergence; type: in vivo, Ambrosia elation; details: for Common Ragweed plant response rating (0 to 100 scale): visual injury approx. 10 days after treatment
Excerpt: (§2) Seeds of plant species selected from barnyardgrass (Echinochloa crus-galli), kochia (Kochia scoparia), common ragweed (Ambrosia elation), Italian ryegrass (Lolium multiflorum), crabgrass, large (large crabgrass, Digitaria sanguinalis), foxtail, giant (giant foxtail, Setaria faberii), morningglory (Ipomoea spp.), pigweed (redroot pigweed, Amaranthus retroflexus), velvetleaf (Abutilon theophrasti), wheat (Triticum aestivum), and corn (Zea mays) were planted into a blend of loam soil and sand and treated preemergence with a directed soil spray using test chemicals formulated in a non-phytotoxic solvent mixture which included a surfactant.
(§3) At the same time, plants selected from these crop and weed species and also blackgrass (Alopecurus myosuroides), and galium (catchweed bedstraw, Galium aparine) were planted in pots containing the same blend of loam soil and sand and treated with postemergence applications of test chemicals formulated in the same manner. Plants ranged in height from 2 to 10 cm and were in the one- to two-leaf stage for the postemergence treatment. Treated plants and untreated controls were maintained in a greenhouse for approximately 10 days, after which time all treated plants were compared to untreated controls and visually evaluated for injury. Plant response ratings, summarized in Table A, are based on a 0 to 100 scale where 0 is no effect and 100 is complete control. A dash (-) response means no test result.

[4] = tested on: Italian ryegrass; assay: Test A preemergence; type: in vivo, Lolium multiflorum; details: for Italian Ryegrass plant response rating (0 to 100 scale): visual injury approx. 10 days after treatment
Method in brief: as §1

[5] = tested on: foxtail, giant; assay: Test A preemergence; type: in vivo, Setaria faberii; details: preemergence; for Foxtail, Giant plant response rating (0 to 100 scale): visual injury approx. 10 days after treatment
Method in brief: as §1

[6] = tested on: pigweed; assay: Test A preemergence; type: in vivo, Amaranthus retroflexus; details: preemergence; for Pigweed plant response rating (0 to 100 scale): visual injury approx. 10 days after treatment
Method in brief: as §1

[7] = tested on: barnyardgrass; assay: Test A postemergence; type: in vivo, Echinochloa crus-galli
Method in brief: as §1

[8] = tested on: kochia; assay: Test A postemergence; type: in vivo, Kochia scoparia
Method in brief: as §1

[9] = tested on: common ragweed; assay: Test A postemergence; type: in vivo, Ambrosia elation
Excerpt: as §2, §3

[10] = tested on: Italian ryegrass; assay: Test A postemergence; type: in vivo, Lolium multiflorum
Excerpt: as §2, §3

[11] = tested on: foxtail, giant; assay: Test A postemergence; type: in vivo, Setaria faberii
Method in brief: as §1

[12] = tested on: pigweed; assay: Test A postemergence; type: in vivo, Amaranthus retroflexus
Method in brief: as §1

[13] = tested on: wheat; assay: Test A postemergence; type: in vivo, Triticum aestivum
Method in brief: as §1

[14] = tested on: corn; assay: Test A postemergence; type: in vivo, Zea mays
Method in brief: as §1

[15] = tested on: blackgrass; assay: Test A postemergence; type: in vivo, Alopecurus myosuroides
Excerpt: as §2, §3

[16] = tested on: galium; assay: Test A postemergence; type: in vivo, Galium aparine
Excerpt: as §2, §3

[17] = tested on: rice; assay: Test B flood; type: in vivo, Oryza sativa; details: 250 g ai/ha, visual rating on 0 to 100 scale (0 no effect, 100 complete control), 13 to 15 days
Method in brief: (§4)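 Visual ratings (0 = no effect, 100 = complete control) versus untreated controls were taken 13–15 days after treatment of greenhouse plants. Treatment was added to paddy water held at 3 cm depth on 2-leaf-stage seedlings.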

[18] = tested on: sedge, umbrella; assay: Test B flood; type: in vivo, Cyperus difformis; details: 250 g ai/ha, visual rating on 0 to 100 scale (0 no effect, 100 complete control), 13 to 15 days
Method in brief: as §4

[19] = tested on: ducksalad; assay: Test B flood; type: in vivo, Heteranthera limosa; details: 250 g ai/ha, visual rating on 0 to 100 scale (0 no effect, 100 complete control), 13 to 15 days
Method in brief: as §4

[20] = tested on: barnyardgrass; assay: Test B flood; type: in vivo, Echinochloa crus-galli; details: 250 g ai/ha, visual rating on 0 to 100 scale (0 no effect, 100 complete control), 13 to 15 days
Method in brief: as §4

[21] = 125 g ai/ha, visual injury, 0 to 100 scale, approx. 10 days
[22] = 500 g ai/ha, visual injury after approx. 10 days, 0 to 100 scale (0 no effect, 100 complete control)
[23] = Postemergence, 500 g ai/ha, 0 to 100 scale (0 no effect, 100 complete control)
[24] = postemergence, 125 g ai/ha, about 10 days, visual rating on 0 to 100 scale (0 no effect, 100 complete control)
[25] = Postemergence, 125 g ai/ha, 0 to 100 scale, 0 no effect, 100 complete control

| SMILES | Barnyardgrass plant response rating [1, 22] | Common Ragweed plant response rating [3, 22] | Italian Ryegrass plant response rating [4, 22] | Foxtail, Giant plant response rating [5, 22] | Barnyardgrass plant response rating [7, 23] | Kochia plant response rating [8, 23] | Common Ragweed plant response rating [9, 23] | Italian Ryegrass plant response rating [10, 23] | Foxtail, Giant plant response rating [11, 23] | Pigweed plant response rating [12, 23] | Wheat plant response rating [13, 23] | Corn plant response rating [14, 23] | Blackgrass plant response rating [15, 23] | Galium plant response rating [16, 23] | Plant response rating, Rice [17] | Plant response rating, Sedge, Umbrella [18] | Plant response rating, Ducksalad [19] | Plant response rating, Barnyardgrass [20] | Barnyardgrass plant response rating (0 to 100 scale, 0 is no effect, 100 is complete control) ([1]; 125 g ai/ha) | Kochia plant response rating (0 to 100 scale) ([2]; 125 g ai/ha) | further results |
| --- | --- | --- | --- | --- | --- | --- | --- | --- | --- | --- | --- | --- | --- | --- | --- | --- | --- | --- | --- | --- | --- |
| CCc1cc(C(=O)NCC(F)(F)F)nn1Cc1cc(C(F)(F)F)no1 [Compound 123] | 100 | 50 | 30 | 100 | 60 | 90 | 40 | 30 | 90 | 100 | 10 | 60 | 50 | 80 | 10 | 60 | 60 | 20 | – | – | Barnyardgrass plant response rating [1, 21]: 0; Kochia plant response rating [2, 21]: 10; Kochia plant response rating [2, 22]: 100; Common Ragweed plant response rating [3, 21]: 10; Italian Ryegrass plant response rating [4, 21]: 0; Foxtail, Giant plant response rating [5, 21]: 20; Pigweed plant response rating [6, 21]: 70; Pigweed plant response rating [6, 22]: 100; Barnyardgrass plant response rating [7, 24]: 0; Kochia plant response rating [8, 24]: 50; Common Ragweed plant response rating [9, 24]: 10; Italian Ryegrass plant response rating [10, 24]: 10; Foxtail, Giant plant response rating [11, 24]: 0; Pigweed plant response rating [12, 24]: 70; Wheat plant response rating [13, 24]: 0; Corn plant response rating [14, 24]: 20; Blackgrass plant response rating [15, 24]: 10; Galium plant response rating [16, 24]: 10 |
| CCc1cc(C(=O)NC2CC2)nn1Cc1cc(C(F)(F)F)nn1C(C)C [Compound 212] | 0 | 0 | 0 | 0 | 10 | 70 | 10 | 10 | 10 | 80 | 10 | 10 | 10 | 40 | 0 | 0 | 0 | 0 | 0 | 0 | Common Ragweed plant response rating (0 to 100 scale) ([3]; 125 g ai/ha): 0; Italian Ryegrass plant response rating (0 to 100 scale) ([4]; 125 g ai/ha): 0; Foxtail, Giant plant response rating (0 to 100 scale) ([5]; 125 g ai/ha): 0; Pigweed plant response rating (0 to 100 scale) ([6]; 125 g ai/ha): 20; Barnyardgrass plant response rating [7, 25]: 0; Kochia plant response rating [8, 25]: 10; Common Ragweed plant response rating [9, 25]: 0; Italian Ryegrass plant response rating [10, 25]: 0; Foxtail, Giant plant response rating [11, 25]: 0; Pigweed plant response rating [12, 25]: 40; Wheat plant response rating [13, 25]: 0; Corn plant response rating [14, 25]: 0; Blackgrass plant response rating [15, 25]: 0; Galium plant response rating [16, 25]: 20 |
| CCc1cc(C(=O)NC2CC2)nn1Cc1cc(OC(F)F)nn1C [Compound 211] | 70 | 40 | 20 | 80 | 50 | 90 | 20 | 30 | 60 | 100 | 20 | 40 | 50 | 70 | 0 | 0 | 0 | 0 | 0 | 50 | Common Ragweed plant response rating (0 to 100 scale) ([3]; 125 g ai/ha): 0; Italian Ryegrass plant response rating (0 to 100 scale) ([4]; 125 g ai/ha): 0; Foxtail, Giant plant response rating (0 to 100 scale) ([5]; 125 g ai/ha): 0; Pigweed plant response rating (0 to 100 scale) ([6]; 125 g ai/ha): 50; Barnyardgrass plant response rating [7, 25]: 0; Kochia plant response rating [8, 25]: 80; Common Ragweed plant response rating [9, 25]: 0; Italian Ryegrass plant response rating [10, 25]: 0; Foxtail, Giant plant response rating [11, 25]: 0; Pigweed plant response rating [12, 25]: 70; Wheat plant response rating [13, 25]: 0; Corn plant response rating [14, 25]: 30; Blackgrass plant response rating [15, 25]: 0; Galium plant response rating [16, 25]: 20 |
